In US9012461B2, “FAK inhibitors” (priority 2011, dated 2015):

Tests used:
[1] = test system: HeyA8, SKOV3ip1, and HeyA8-MDR models; conditions: compared with vehicle-treated controls; cited from earlier work
[2] = test system: taxane-sensitive (SKOV3ip1 and HeyA8) and taxane-resistant (HeyA8-MDR) ovarian cancer cell lines; conditions: in vitro; cited from earlier work
[3] = test system: MDA-231-LNA primary tumours; test: Combination study, MDA-231-LNA orthotopic xenograft model; format: in vivo, Balb/c SCID mice; conditions: Avastin 12.5 mg/kg i.p. twice weekly; compound 16 (citrate salt) p.o. 54 mg/kg BID
Excerpt: Mice harvested for tumour immunohistochemical analysis were not included in Kaplan-Meier analysis.
All bars represent the mean±S.E.M of n=7 mice per group. *p<0.05 and **p<0.01 by one-way ANOVA.

MDA-231-LNA cells = conditions: 3 days

| Molecule | IC50 (MDA-231-LNA cells) [µM] | further results |
| --- | --- | --- |
| CNC(=O)c1ccccc1Nc1nc(Nc2ccc(N3CCOCC3)cc2OC)ncc1Cl [TAE226] |  | reduction of tumour burden [1]: 46-64%; phosphorylation of FAK [2]: inhibited the phosphorylation of FAK at both Y397 and Y861 sites |
| Avastin |  | median survival time [3]: 24 days |
| CCN1CCC(c2ccc(Nc3ncc(C(F)(F)F)c(CCc4ncccc4CC(N)=O)n3)cc2)CC1 [Compound 38, 2-(2-(2-(2-((4-(1-Ethylpiperidin-4-yl)phenyl)amino)-5-(trifluoromethyl)pyrimidin-4-yl)ethyl)pyridin-3-yl)acetamide] | > 10 |  |
| NC(=O)Cc1cccnc1CCc1nc(Nc2ccc(C3CCNCC3)cc2)ncc1C(F)(F)F [Compound 32, 2-(2-(2-(2-((4-(Piperidin-4-yl)phenyl)amino)-5-(trifluoromethyl)pyrimidin-4-yl)ethyl)pyridin-3-yl)acetamide] | > 5 |  |
| NC(=O)Cc1ccccc1CCc1nc(Nc2ccc(C3CCNC3)cc2)ncc1C(F)(F)F (stereo not drawn) [Compound 35, 2-(2-(2-(2-((4-(pyrrolidin-3-yl)phenyl)amino)-5-(trifluoromethyl)pyrimidin-4-yl)ethyl)phenyl)acetamide] | > 10 |  |
